Positions of bridges follow the written chain, without caps; N, C: chain ends. Non-standard residues stand in square brackets, D forms with d. Residues, ends and D or L forms follow the SMILES beside them. *: point of attachment. FITC = O=C1OC2(c3ccc(O)cc3Oc3cc(O)ccc32)c2ccc(NC(=S)*)cc21; S5 = C=CCCC[C@](C)(N)C(=O)O; AEEA = NCCOCCOCC(=O)O
How the values were obtained:
[1] = CD spectroscopy, secondary structure content; assay type: physicochemical; settings: fluorescein-labeled peptide 75 μM, 10 mM sodium phosphate pH 7.4, CDNN/PEPFIT; for Helix (α-helicity): unbound
Protocol: Spectra of fluorescein-labeled peptides were recorded with a J-715 circular dichroism spectrometer (Jasco) using a stoppered quartz cuvette (1 mm; Hellma). Peptide samples (c = 75 μM) were prepared in buffer: 10 mM disodium hydrogen phosphate, pH 7.4. For each sample, 10 CD spectra were measured between λ = 190 and 260 nm with continuous scan mode (10 mdeg sensitivity, 1.0 nm resolution, 1.0 nm bandwidth, 2 s integration time, 50 nm/min scan rate). Obtained spectra were averaged, then subtracted from a reference buffer spectrum and smoothed using a fast Fourier transform filter (FFT filter). The mean residue ellipticity (Θ) (deg·cm^2·dmol^−1·10^4) was calculated using Formula (2) and plotted against wavelength (λ) (nm). The ratio of secondary structure elements was calculated with CDNN using the PEPFIT set of reference spectra for secondary structure determination ([45],[46]):(2) where [Θ]m = mean molar ellipticity per peptide bond (degree·cm^2·dmol^−1·10^4), Θ = measured ellipticity (degree), d = optical path length (cm), cg = mass concentration (g·l^−1), MRW = mean residue weight, M = molar mass of the peptide (g·mol^−1) and N = number of peptide bonds.

proteinase K = proteinase K (Parengyodontium album, UniProt P06873); experiment: Protease stability assay; assay type: in vitro ADME; settings: proteinase K 10 μg·ml^−1, fluorescein-labeled peptide 50 μM, 10 mM Tris pH 8.0, 150 mM NaCl, room temperature, HPLC absorbance 210 nm, exponential decay fit
proteinase K, sequence (P06873 106-384): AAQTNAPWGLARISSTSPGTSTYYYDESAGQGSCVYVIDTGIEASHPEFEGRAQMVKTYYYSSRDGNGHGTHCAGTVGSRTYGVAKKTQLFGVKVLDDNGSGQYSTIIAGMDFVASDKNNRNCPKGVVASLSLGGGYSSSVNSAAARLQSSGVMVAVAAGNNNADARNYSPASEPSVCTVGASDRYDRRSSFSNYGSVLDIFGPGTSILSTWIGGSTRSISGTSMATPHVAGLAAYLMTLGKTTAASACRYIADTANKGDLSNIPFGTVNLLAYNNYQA
Protocol: Protease stability assays were performed in analogy to a previously published protocol ([47]). Stocks of fluorescein-labeled peptides were prepared to a concentration of 55.5 μM in assay buffer (10 mM Tris, pH 8.0, 150 mM NaCl) and separately stocks of proteinase K also in assay buffer (c = 100 μg·ml^−1). To begin each experiment, peptide and proteinase K stocks were mixed (final concentrations: c = 10 μg·ml^−1 proteinase K, c = 50 μM fluorescein-labeled peptide; final volume = 500 μl) and incubated at room temperature. At each time point, 50 μl of the reaction mixture was quenched by adding 100 μl of TFA/ACN/H2O (v/v/v, 1:49:49) and subsequently incubated for 2 min on ice. Following centrifugation (15 min, 13200 rpm, 4°C), samples (45 μl) were monitored by analytical HPLC using a linear gradient of 10–60% HPLC solvent B over 20 min. The amount of remaining peptide was quantified via absorbance at λ = 210 nm (intact peptide (%)) and plotted against time (t) (h). Half-life (t1/2) was calculated by fitting the data to an exponential decay using the software Prism 5.0 (GraphPad).

Compound: CC(C)C[C@H](NC(=O)[C@]1(C)CCCC=CCCC[C@](C)(NC(=O)[C@H](CCC(=O)O)NC(=O)[C@H](CO)NC(=O)[C@@H]2CCCN2C(=O)[C@H](CO)NC(=O)[C@H](CCCCN)NC(=O)[C@H](Cc2c[nH]cn2)NC(=O)CNC(=O)[C@H](CCCNC(=N)N)NC(=O)[C@H](CCC(=O)O)NC(=O)[C@H](CCCCN)NC(=O)[C@H](CCCNC(=N)N)NC(=O)[C@H](CC(N)=O)NC(=O)[C@]2(C)CCCC=CCCC[C@](C)(NC(=O)[C@H](CCCNC(=N)N)NC(=O)[C@H](CCC(N)=O)NC(=O)[C@H](C)NC(=O)[C@H](CCC(N)=O)NC(=O)[C@H](CCCCN)NC(=O)[C@H](CCCCN)NC(=O)COCCOCCNC(=S)Nc3ccc4c(c3)C(=O)OC43c4ccc(O)cc4Oc4cc(O)ccc43)C(=O)N[C@@H](CCCNC(=N)N)C(=O)N[C@@H](Cc3c[nH]cn3)C(=O)N[C@@H](CCCCN)C(=O)N2)C(=O)N[C@@H](CCCNC(=N)N)C(=O)N[C@@H](CCCNC(=N)N)C(=O)N[C@@H](CO)C(=O)N1)C(=O)N[C@@H](Cc1c[nH]c2ccccc12)C(=O)N[C@@H](Cc1c[nH]cn1)C(=O)N[C@@H](C)C(=O)N[C@@H](CCCNC(=N)N)C(N)=O [B2] ({FITC-AEEA}-KKQAQR[S5]RHK[S5]NRKERGHKSPSE[S5]RRS[S5]LWHAR-NH2; staple 7-11, 24-28)
- Random coil [1]: 12.5%
- β-Sheet [1]: 2.4%
- β-Turn [1]: 10.3%
- Helix (α-helicity) [1]: 82.2%
- Half-life (t1/2) (proteinase K): 8.93 h

Compound: CC(C)C[C@H](NC(=O)[C@H](CCCCN)NC(=O)[C@H](Cc1c[nH]cn1)NC(=O)[C@H](CCCNC(=N)N)NC(=O)[C@H](CCCCN)NC(=O)[C@H](CCCNC(=N)N)NC(=O)[C@H](CCC(N)=O)NC(=O)[C@H](C)NC(=O)[C@H](CCC(N)=O)NC(=O)[C@H](CCCCN)NC(=O)[C@H](CCCCN)NC(=O)COCCOCCNC(=S)Nc1ccc2c(c1)C(=O)OC21c2ccc(O)cc2Oc2cc(O)ccc21)C(=O)N[C@@H](CC(N)=O)C(=O)N[C@@H](CCCNC(=N)N)C(=O)N[C@@H](CCCCN)C(=O)N[C@@H](CCC(=O)O)C(=O)N[C@@H](CCCNC(=N)N)C(=O)NCC(=O)N[C@@H](Cc1c[nH]cn1)C(=O)N[C@@H](CCCCN)C(=O)N[C@@H](CO)C(=O)N1CCC[C@H]1C(=O)N[C@@H](CO)C(=O)N[C@@H](CCC(=O)O)C(=O)N[C@@]1(C)CCCC=CCCC[C@@](C)(C(=O)N[C@@H](CC(C)C)C(=O)N[C@@H](Cc2c[nH]c3ccccc23)C(=O)N[C@@H](Cc2c[nH]cn2)C(=O)N[C@@H](C)C(=O)N[C@@H](CCCNC(=N)N)C(N)=O)NC(=O)[C@H](CO)NC(=O)[C@H](CCCNC(=N)N)NC(=O)[C@H](CCCNC(=N)N)NC1=O [B] ({FITC-AEEA}-KKQAQRKRHKLNRKERGHKSPSE[S5]RRS[S5]LWHAR-NH2; staple 24-28)
- Random coil [1]: 46.0%
- β-Sheet [1]: 6.8%
- β-Turn [1]: 13.9%
- Helix (α-helicity) [1]: 30.5%
- Half-life (t1/2) (proteinase K): 1.08 h

Compound: CC(C)C[C@@H]1NC(=O)[C@@](C)(NC(=O)[C@H](CO)NC(=O)[C@H](CCCNC(=N)N)NC(=O)[C@H](CCCNC(=N)N)NC(=O)[C@H](CCC(N)=O)NC(=O)[C@H](CCC(=O)O)NC(=O)[C@H](CO)NC(=O)[C@@H]2CCCN2C(=O)[C@H](CO)NC(=O)[C@H](CCCCN)NC(=O)[C@H](Cc2c[nH]cn2)NC(=O)CNC(=O)[C@H](CCCNC(=N)N)NC(=O)[C@H](CCC(=O)O)NC(=O)[C@H](CCCCN)NC(=O)[C@H](CCCNC(=N)N)NC(=O)[C@H](CC(N)=O)NC(=O)[C@]2(C)CCCC=CCCC[C@](C)(NC(=O)[C@H](CCCNC(=N)N)NC(=O)[C@H](CCC(N)=O)NC(=O)[C@H](C)NC(=O)[C@H](CCC(N)=O)NC(=O)[C@H](CCCCN)NC(=O)[C@H](CCCCN)NC(=O)COCCOCCNC(=S)Nc3ccc4c(c3)C(=O)OC43c4ccc(O)cc4Oc4cc(O)ccc43)C(=O)N[C@@H](CCCNC(=N)N)C(=O)N[C@@H](Cc3c[nH]cn3)C(=O)N[C@@H](CCCCN)C(=O)N2)CCCC=CCCC[C@@](C)(C(=O)N[C@@H](CCCNC(=N)N)C(N)=O)NC(=O)[C@H](Cc2c[nH]cn2)NC(=O)[C@H](Cc2c[nH]c3ccccc23)NC1=O [C2] ({FITC-AEEA}-KKQAQR[S5]RHK[S5]NRKERGHKSPSEQRRS[S5]LWH[S5]R-NH2; staple 7-11, 28-32)
- Random coil [1]: 41.6%
- β-Sheet [1]: 3.3%
- β-Turn [1]: 4.2%
- Helix (α-helicity) [1]: 61.8%
- Half-life (t1/2) (proteinase K): 7.33 h

Compound: CC(C)C[C@@H]1NC(=O)[C@@](C)(NC(=O)[C@H](CO)NC(=O)[C@H](CCCNC(=N)N)NC(=O)[C@H](CCCNC(=N)N)NC(=O)[C@H](CCC(N)=O)NC(=O)[C@H](CCC(=O)O)NC(=O)[C@H](CO)NC(=O)[C@@H]2CCCN2C(=O)[C@H](CO)NC(=O)[C@H](CCCCN)NC(=O)[C@H](Cc2c[nH]cn2)NC(=O)CNC(=O)[C@H](CCCNC(=N)N)NC(=O)[C@]2(C)CCCC=CCCC[C@](C)(NC(=O)[C@H](CCCCN)NC(=O)[C@H](Cc3c[nH]cn3)NC(=O)[C@H](CCCNC(=N)N)NC(=O)[C@H](CCCCN)NC(=O)[C@H](CCCNC(=N)N)NC(=O)[C@H](CCC(N)=O)NC(=O)[C@H](C)NC(=O)[C@H](CCC(N)=O)NC(=O)[C@H](CCCCN)NC(=O)[C@H](CCCCN)NC(=O)COCCOCCNC(=S)Nc3ccc4c(c3)C(=O)OC43c4ccc(O)cc4Oc4cc(O)ccc43)C(=O)N[C@@H](CC(N)=O)C(=O)N[C@@H](CCCNC(=N)N)C(=O)N[C@@H](CCCCN)C(=O)N2)CCCC=CCCC[C@@](C)(C(=O)N[C@@H](CCCNC(=N)N)C(N)=O)NC(=O)[C@H](Cc2c[nH]cn2)NC(=O)[C@H](Cc2c[nH]c3ccccc23)NC1=O [C3] ({FITC-AEEA}-KKQAQRKRHK[S5]NRK[S5]RGHKSPSEQRRS[S5]LWH[S5]R-NH2; staple 11-15, 28-32)
- Random coil [1]: 37.0%
- β-Sheet [1]: 4.3%
- β-Turn [1]: 6.2%
- Helix (α-helicity) [1]: 59.3%
- Half-life (t1/2) (proteinase K): 5.05 h

Compound: CC(C)C[C@H](NC(=O)[C@H](CCCCN)NC(=O)[C@H](Cc1c[nH]cn1)NC(=O)[C@H](CCCNC(=N)N)NC(=O)[C@H](CCCCN)NC(=O)[C@H](CCCNC(=N)N)NC(=O)[C@H](CCC(N)=O)NC(=O)[C@H](C)NC(=O)[C@H](CCC(N)=O)NC(=O)[C@H](CCCCN)NC(=O)[C@H](CCCCN)NC(=O)COCCOCCNC(=S)Nc1ccc2c(c1)C(=O)OC21c2ccc(O)cc2Oc2cc(O)ccc21)C(=O)N[C@@H](CC(N)=O)C(=O)N[C@@H](CCCNC(=N)N)C(=O)N[C@@H](CCCCN)C(=O)N[C@@H](CCC(=O)O)C(=O)N[C@@H](CCCNC(=N)N)C(=O)NCC(=O)N[C@@H](Cc1c[nH]cn1)C(=O)N[C@@H](CCCCN)C(=O)N[C@@H](CO)C(=O)N1CCC[C@H]1C(=O)N[C@@H](CO)C(=O)N[C@@H](CCC(=O)O)C(=O)N[C@@H](CCC(N)=O)C(=O)N[C@@H](CCCNC(=N)N)C(=O)N[C@@H](CCCNC(=N)N)C(=O)N[C@@H](CO)C(=O)N[C@@]1(C)CCCC=CCCC[C@@](C)(C(=O)N[C@@H](CCCNC(=N)N)C(N)=O)NC(=O)[C@H](Cc2c[nH]cn2)NC(=O)[C@H](Cc2c[nH]c3ccccc23)NC(=O)[C@H](CC(C)C)NC1=O [C] ({FITC-AEEA}-KKQAQRKRHKLNRKERGHKSPSEQRRS[S5]LWH[S5]R-NH2; staple 28-32)
- Random coil [1]: 63.6%
- β-Sheet [1]: 2.8%
- β-Turn [1]: 7.6%
- Helix (α-helicity) [1]: 28.4%
- Half-life (t1/2) (proteinase K): 1.3 h

— publication PMC8682738, “Constrained peptides mimic a viral suppressor of RNA silencing” (Nucleic Acids Research, 2021)
